One block for each substance: values may come before it.
Columns and labels:
[1] = Affinity constants of β-cyclodextrin dimers/trimers for guest compounds (competition with TNS, fluorescence spectroscopy); format: binding
Procedure: Binding constants can be determined in competition with 6-(p-toluidino)-2-naphthalenesulfonic acid (TNS). The measurement is performed by fluorescence spectroscopy according to Ruebner et al. (loc. cit.).
Due to the cyclodextrins being bonded on the secondary side, the cavities of the cyclodextrins are oriented towards each other. The cyclodextrins are preferably β-cyclodextrins. The distance between the cyclodextrin units is determined by selecting the spacer. Depending on the size of the compound to be enclosed, the spacer is selected such that the distance between the at least two cavities approximately matches the distance between two hydro-phobic groups of the pharmaceutically active substance. Preferred spacings are within a range of about 0.6 to 2 nm, more preferably in a range of about 0.8, 1.0, 1.2, 1.4, 1.6 and 1.8 nm.
Such rigid spacers can also be achieved by the use of appropriately functionalized (hetero)aromatics. For example, rigid spacers prevent too high a conformational flexibility, such as twisting of the two cyclodextrins involved in the binding. […] By the use of rigid spacers, affinity constants within a range of greater than 10^6, preferably greater than 10^7 and more preferably greater than 10^8 l/mol are achieved. Thus, rigid spacers are those which achieve correspondingly high stability constants of the complexes together with cyclodextrins involved in the binding and appropriate guest compounds.

[2] = Complex binding constant in competitive reaction with toluidinonaphthalenesulfonic acid; details: guest paclitaxel; competition with toluidinonaphthalenesulfonic acid; read-out: complex binding constant Ktaxol
Procedure: 250 mg (100 μmol) of the CD dimer di-β-CD(2N-A4C5A4) (see FIG. 5) was dissolved in 1 l of aqueous buffer (pH 7.35, Hepes 25 mM) at 60° C. and kept at this temperature with vigorous stirring. 8.5 mg of paclitaxel (10 μmol) was dissolved in 1 ml of dimethyl sulfoxide and added dropwise to the mixture with vigorous stirring. The mixture was kept at 60° C. for 24 hours with stirring, followed by cooling and freeze-drying the mixture.

[3] = spacer length 15-16 Å, guests paclitaxel, docetaxel

Substance: di-β-CD(—NH—(C2H4)—SH-[6-(β,γ)-CD-6]-SH—(C2H4)—NH—)
- Affinity constant, measured/estimated [1, 3]: 3 · 10^9 (trimer) l/mol

Substance: di-β-CD(—NH—(C2H4)—SH—[6-α-CD-6]—SH—(C2H4)—NH—)
- Affinity constant, measured/estimated ([1]; spacer length 13-14 Å, guests vinblastin, vincristin): ˜10^8 l/mol

Substance: di-β-CD(—NH—(C3H6)—NHCO—(C3H6)—CONH—(C3H6)—NH—) [A3C5A3]
- Affinity constant, measured/estimated ([1]; spacer length 11-12 Å, guests colchicine, colchemide): 10^6-10^7 l/mol

- Kd [2]: 1.4 µM
Substance: di-β-CD(—NH—(C4H8)—NHCO—(C3H6)—CONH—(C4H8)—NH—) [A4C5A4]
- Affinity constant, measured/estimated [1, 3]: 10^7 (dimer)- l/mol

Substance: di-β-CD(—NH—(C8H16)—NH—) [octyl-α,ω-diamide]
- Affinity constant, measured/estimated ([1]; spacer length 7-8 Å, guests 3^1,8^1-(di-t-butylphenoxy)-porphyrinoids, (tamoxifene), phenytoin): 10^6-10^7 l/mol

— US6642214B1, “Detoxication of active pharmaceutical substances using cyclodextrine oligomers” (CeramOptec Industries, Inc., priority 1997, dated 2003)
